# Test results as given in US10183950B2, “Thienopyrimidine inhibitors of atypical protein kinase C” (Cancer Research Technology Limited, priority 2011, dated 2019).
# pIC50: −log10 of the molar value.
# Biological target: T1, full-length human PKCι (Homo sapiens, UniProt P41743)
# T1 construct: Recombinant, full-length human PKCι expressed in Sf21 insect cells is also commercially available; purchased; host or cells: Sf21 insect cells
# T1 sequence (P41743 1-596): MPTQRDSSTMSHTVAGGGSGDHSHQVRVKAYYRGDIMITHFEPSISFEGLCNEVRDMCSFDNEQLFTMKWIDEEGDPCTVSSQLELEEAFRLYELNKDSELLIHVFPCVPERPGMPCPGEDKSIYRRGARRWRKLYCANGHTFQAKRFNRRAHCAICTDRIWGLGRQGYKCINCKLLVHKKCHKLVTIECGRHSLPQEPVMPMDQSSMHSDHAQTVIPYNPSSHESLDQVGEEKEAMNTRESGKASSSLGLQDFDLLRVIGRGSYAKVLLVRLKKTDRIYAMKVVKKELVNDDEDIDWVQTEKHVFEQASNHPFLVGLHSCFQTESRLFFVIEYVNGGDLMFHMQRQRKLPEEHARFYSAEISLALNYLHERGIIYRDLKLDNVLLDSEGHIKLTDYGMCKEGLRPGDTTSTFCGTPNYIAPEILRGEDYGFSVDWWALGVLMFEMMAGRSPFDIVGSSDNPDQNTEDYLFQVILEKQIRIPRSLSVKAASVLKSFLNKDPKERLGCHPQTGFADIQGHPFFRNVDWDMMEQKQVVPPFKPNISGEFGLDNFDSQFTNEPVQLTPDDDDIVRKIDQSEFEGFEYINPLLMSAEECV
# Assay: PKCι IC50 IMAP fluorescence polarisation assay, full-length enzyme
# Format: biochemical
# Conditions: full length PKCi at 15 μM ATP; read-out: IC50 in IMAP assay against full length PKCi
row,SMILES,pIC50
1,"CC(C)[C@H](N)CNc1nc(-c2ccncc2)nc2c(Br)csc12 [compound 347, (S)-N*1*-(7-Bromo-2-pyridin-4-yl-thieno[3,2-d]pyrimidin-4-yl)-3-methyl-butane-1,2-diamine]",6.00 to 7.00
2,"Cc1sc2c(NC[C@H](C)N)nc(-c3ccncc3)nc2c1Br [compound 331, (S)-N*1*-(7-Bromo-6-methyl-2-pyridin-4-yl-thieno[3,2-d]pyrimidin-4-yl)-propane-1,2-diamine]",5.00 to 6.00
3,"Brc1csc2c(N[C@@H]3CCNC3)nc(-c3ccncc3)nc12 [compound 351, (7-Bromo-2-pyridin-4-yl-thieno[3,2-d]pyrimidin-4-yl)-(R)-pyrrolidin-3-yl-amine]",> 7.00
4,"N[C@H](CNc1nc(-c2ccncc2)nc2c(-c3cccnc3)csc12)Cc1ccccc1 [compound 410, (S)-3-Phenyl-N*1*-(2-pyridin-4-yl-7-pyridin-3-yl-thieno[3,2-d]pyrimidin-4-yl)-propane-1,2-diamine]",5.00 to 6.00
5,"C[C@H](N)CNc1nc(-c2ccncc2)nc2c(Br)csc12 [compound 305, (S)—N*1*-(7-Bromo-2-pyridin-4-yl-thieno[3,2-d]pyrimidin-4-yl)-propane-1,2-diamine]",6.00 to 7.00
6,"CN(C)CCNc1nc(-c2ccncc2)nc2c(Br)csc12 [compound 339, N′-(7-Bromo-2-pyridin-4-yl-thieno[3,2-d]pyrimidin-4-yl)-N,N-dimethyl-ethane-1,2-diamine]",4.40 to 5.00
7,"O[C@H]1CNC[C@@H]1Nc1nc(-c2ccncc2)nc2ccsc12 [compound 319, (3S,4S)-4-(2-Pyridin-4-yl-thieno[3,2-d]pyrimidin-4-ylamino)-pyrrolidin-3-ol]",5.00 to 6.00
8,"CNCCNc1nc(-c2ccncc2)nc2c(Br)csc12 [compound 345, N-(7-Bromo-2-pyridin-4-yl-thieno[3,2-d]pyrimidin-4-yl)-N′-methyl-ethane-1,2-diamine]",5.00 to 6.00
9,"Cc1sc2c(N[C@@H]3CCNC3)nc(-c3ccncc3)nc2c1Br [compound 328, (7-Bromo-6-methyl-2-pyridin-4-yl-thieno[3,2-d]pyrimidin-4-yl)-(R)-pyrrolidin-3-yl-amine]",6.00 to 7.00
10,"Brc1csc2c(N3CCNCC3)nc(-c3ccncc3)nc12 [compound 350, 7-Bromo-4-piperazin-1-yl-2-pyridin-4-yl-thieno[3,2-d]pyrimidine]",6.00 to 7.00

# Continued, values first:
row,pIC50,SMILES
1,> 7.00,"N[C@H](CNc1nc(-c2ccncc2)nc2c(C#Cc3cc[nH]n3)csc12)Cc1ccccc1 [compound 549, (S)-3-Phenyl-N*1*-[7-(1H-pyrazol-3-ylethynyl)-2-pyridin-4-yl-thieno[3,2-d]pyrimidin-4-yl]-propane-1,2-diamine]"
2,6.00 to 7.00,"CC(C)(O)C#Cc1csc2c(NC[C@@H](N)Cc3ccccc3)nc(-c3ccncc3F)nc12 [compound 509, 4-[4-((S)-2-Amino-3-phenyl-propylamino)-2-(3-fluoro-pyridin-4-yl)-thieno[3,2-d]pyrimidin-7-yl]-2-methyl-but-3-yn-2-ol]"
3,4.40 to 5.00,"Cc1nc(C)c(-c2c(C)sc3c(NC[C@@H](N)Cc4ccccc4)nc(-c4ccncc4)nc23)s1 [compound 457, (S)-N*1*-[7-(2,4-Dimethyl-thiazol-5-yl)-6-methyl-2-pyridin-4-yl-thieno[3,2-d]pyrimidin-4-yl]-3-phenyl-propane-1,2-diamine]"
4,5.00 to 6.00,"NC(CNc1nc(-c2ccncc2F)nc2c(-c3cccnc3)csc12)Cc1ccccc1 (stereo in doubt) [compound 423, (R)-N*1*-[2-(3-Fluoro-pyridin-4-yl)-7-pyridin-3-yl-thieno[3,2-d]pyrimidin-4-yl]-3-phenyl-propane-1,2-diamine]"
5,4.40 to 5.00,"COc1ccncc1-c1c(C)sc2c(NC[C@@H](N)Cc3ccccc3)nc(-c3ccncc3)nc12 [compound 439, (S)-N*1*-[7-(4-Methoxy-pyridin-3-yl)-6-methyl-2-pyridin-4-yl-thieno[3,2-d]pyrimidin-4-yl]-3-phenyl-propane-1,2-diamine]"
6,5.00 to 6.00,"NCc1ccc(-c2csc3c(NCC(N)Cc4ccccc4)nc(-c4ccncc4F)nc23)cc1 (stereo in doubt) [compound 427, (R)-N*1*-[7-(4-Aminomethyl-phenyl)-2-(3-fluoro-pyridin-4-yl)-thieno[3,2-d]pyrimidin-4-yl]-3-phenyl-propane-1,2-diamine]"
7,> 7.00,"C#Cc1csc2c(NC[C@@H](N)Cc3ccccc3)nc(-c3ccncc3)nc12 [compound 541, (S)-N*1*-(7-Ethynyl-2-pyridin-4-yl-thieno[3,2-d]pyrimidin-4-yl)-3-phenyl-propane-1,2-diamine]"
8,5.00 to 6.00,"c1ccc(Nc2cc(-c3nc(N[C@@H]4CCNC4)c4sccc4n3)ccn2)nc1 [compound 600, {2-[2-(Pyridin-2-ylamino)-pyridin-4-yl]-thieno[3,2-d]pyrimidin-4-yl}-(R)-pyrrolidin-3-yl-amine]"
9,6.00 to 7.00,"N[C@H](CNc1nc(-c2ccncc2)nc2c(-c3ccon3)csc12)Cc1ccccc1 [compound 572, (S)-N*1*-(7-Isoxazol-3-yl-2-pyridin-4-yl-thieno[3,2-d]pyrimidin-4-yl)-3-phenyl-propane-1,2-diamine]"
10,4.40 to 5.00,"COc1ccc(C(C)(C)C)cc1-c1c(C)sc2c(NC[C@@H](N)Cc3ccccc3)nc(-c3ccncc3)nc12 [compound 461, (S)-N*1*-[7-(5-tert-Butyl-2-methoxy-phenyl)-6-methyl-2-pyridin-4-yl-thieno[3,2-d]pyrimidin-4-yl]-3-phenyl-propane-1,2-diamine]"
11,5.00 to 6.00,"CC(C)[C@](C)(O)C#Cc1csc2c(NC[C@@H](N)Cc3ccccc3)nc(-c3ccncc3)nc12 [compound 524, (S)-1-[4-((S)-2-Amino-3-phenyl-propylamino)-2-pyridin-4-yl-thieno[3,2-d]pyrimidin-7-yl]-3,4-dimethyl-pent-1-yn-3-ol]"
12,5.00 to 6.00,"NC(=O)CN1C[C@H](Nc2nc(-c3ccnc(NC(=O)c4cccs4)c3)nc3ccsc23)[C@@H](O)C1 [compound 629, Thiophene-2-carboxylic acid {4-[4-((3S,4S)-1-carbamoylmethyl-4-hydroxy-pyrrolidin-3-ylamino)-thieno[3,2-d]pyrimidin-2-yl]-pyridin-2-yl}-amide]"
13,4.40 to 5.00,"COc1ccc(C(C)C)cc1-c1c(C)sc2c(NC[C@@H](N)Cc3ccccc3)nc(-c3ccncc3)nc12 [compound 462, (S)-N*1*-[7-(5-Isopropyl-2-methoxy-phenyl)-6-methyl-2-pyridin-4-yl-thieno[3,2-d]pyrimidin-4-yl]-3-phenyl-propane-1,2-diamine]"
14,5.00 to 6.00,"CCC(O)(C#Cc1csc2c(NC[C@@H](N)Cc3ccccc3)nc(-c3ccncc3)nc12)CC [compound 525, 1-[4-(2-Amino-3-phenyl-propylamino)-2-pyridin-4-yl-thieno[3,2-d]pyrimidin-7-yl]-3-ethyl-pent-1-yn-3-ol]"
15,5.00 to 6.00,"CC(C)(N)C#Cc1csc2c(NC[C@@H](N)Cc3ccccc3)nc(-c3ccncc3)nc12 [compound 516, (S)-N*1*-[7-(3-Amino-3-methyl-but-1-ynyl)-2-pyridin-4-yl-thieno[3,2-d]pyrimidin-4-yl]-3-phenyl-propane-1,2-diamine]"
16,6.00 to 7.00,"C[C@H](O)C#Cc1csc2c(NC[C@@H](N)Cc3ccccc3)nc(-c3ccncc3F)nc12 [compound 508, (S)-4-[4-((S)-2-Amino-3-phenyl-propylamino)-2-(3-fluoro-pyridin-4-yl)-thieno[3,2-d]pyrimidin-7-yl]-but-3-yn-2-ol]"
17,6.00 to 7.00,"Fc1cnc(Nc2cnccn2)cc1-c1nc(N[C@@H]2CCNC2)c2sccc2n1 [compound 580, {2-[5-Fluoro-2-(pyrazin-2-ylamino)-pyridin-4-yl]-thieno[3,2-d]pyrimidin-4-yl}-(R)-pyrrolidin-3-yl-amine]"

# Same assay, conditions: full length PKCi at 15 μM ATP; read-out: IC50 in IMAP assay against full length PKCi (Activity)
row,pIC50,SMILES
1,4.40 to 5.00,"NCCNc1nc(-c2ccncc2)nc2sc3c(c12)CCN(C(=O)C1CCC1)C3 [compound 109, [4-(2-Amino-ethylamino)-2-pyridin-4-yl-5,8-dihydro-6H-pyrido[4′,3′:4,5]thieno[2,3-d]pyrimidin-7-yl]-cyclobutyl-methanone]"
2,5.00 to 6.00,"c1ccc(C[C@H]2CN(c3nc(-c4cn[nH]c4)nc4sc5c(c34)CCCC5)CCN2)cc1 [compound 196, 4-((S)-3-Benzyl-piperazin-1-yl)-2-(1H-pyrazol-4-yl)-5,6,7,8-tetrahydro-benzo[4,5]thieno[2,3-d]pyrimidine]"
3,5.00 to 6.00,"N[C@H](CNc1nc(-c2ccncc2)nc2sc3c(c12)CCC1(C3)OCCO1)Cc1ccccc1 [compound 78, (S)-3-Phenyl-N*1*-*-1,4-Dioxa-spiro[7.7]-(2-pyridin-4-yl-5,6,7,8-tetrahydro-benzo[4,5]thieno[2,3-d]pyrimidin-4-yl)-propane-1,2-diamine]"
4,4.40 to 5.00,"C[C@H](N)CNc1nc(-c2ccncc2)nc2sc3c(c12)CCN(C(=O)OC(C)(C)C)C3 [compound 96, 4-((S)-2-Amino-propylamino)-2-pyridin-4-yl-5,8-dihydro-6H-pyrido[4′,3′:4,5]thieno[2,3-d]pyrimidine-7-carboxylic acid tert-butyl ester]"
